The record followed here is paper PMC9250534, “Synthesis and direct assay of large macrocycle diversities by combinatorial late-stage modification at picomole scale” (Nature Communications, 2022).

Numbered stars: 1 amine (or outer) side, 2 acyl side, 3 side chain; on linkers, the order of the positions; unused ones are H or OH. Bridge positions count the residues as written; N and C are the ends. Square brackets hold non-standard residues; d marks the D form. Peptide text beside a SMILES is read from it. * marks the point of attachment. ξ: configuration not given here. ξPro(4-NHCO(5-Cl-2-thienyl)) = O=C(NC1CNC(C(=O)O)C1)c1ccc(Cl)s1; ξPro(4ξ-NHCOC6H4-4-Cl) = O=C(NC1CNC(C(=O)O)C1)c1ccc(Cl)cc1; 2Thenoyl(5-Cl) = O=C(c1ccc(Cl)s1)*; Benzoyl(4-Cl) = O=C(c1ccc(Cl)cc1)*; Cysteamide = C(CS[*:3])N[*:1]; X1 = O=C(/C=C/c1ccccc1)*; Api = NC1(C(=O)O)CCNCC1; Dap = NC[C@H](N)C(=O)O; Mpa = O=C(O)CCS

The target in this experiment is MDM2 (Homo sapiens, UniProt Q00987). Nature of the experiment: MDM2 binding screen: displacement of fluorescent p53 peptide probe FP53 (fluorescence polarization). Particulars: crude macrocycle reactions; for fraction fluorescent probe displaced, Screen: initial screen. In short, it runs like this: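 Macrocycle reaction products at a final 10 µM were tested for displacement of a p53-based fluorescent peptide from human MDM2. Fluorescence anisotropy (ex 485/em 535 nm) was read once per macrocycle at 25 °C.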
MDM2, sequence (Q00987 whole entry): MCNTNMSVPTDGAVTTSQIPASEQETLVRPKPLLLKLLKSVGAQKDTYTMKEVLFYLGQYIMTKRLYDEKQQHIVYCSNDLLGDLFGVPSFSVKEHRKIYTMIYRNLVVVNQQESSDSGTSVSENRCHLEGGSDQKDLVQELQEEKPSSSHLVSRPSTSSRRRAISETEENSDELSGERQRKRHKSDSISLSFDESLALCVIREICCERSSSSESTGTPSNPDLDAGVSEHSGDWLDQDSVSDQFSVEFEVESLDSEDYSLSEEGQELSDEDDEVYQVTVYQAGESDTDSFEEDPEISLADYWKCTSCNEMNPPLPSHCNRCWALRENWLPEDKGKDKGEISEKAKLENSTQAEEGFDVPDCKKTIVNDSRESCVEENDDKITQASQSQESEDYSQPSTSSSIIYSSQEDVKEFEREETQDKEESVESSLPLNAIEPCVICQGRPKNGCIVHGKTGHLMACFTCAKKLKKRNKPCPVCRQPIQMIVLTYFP
Background: Fluorescence polarisation rises when a labelled molecule tumbles more slowly, as on binding a larger partner.

In the case of `O=C1CCSSCCNC(=O)[C@H]2CCCN(C2)C(=O)C2(CCN(C(=O)c3ccc(Cl)cc3)CC2)NC(=O)[C@H](Cc2ccccc2)N1` [X F D6 B4 Acid 25], under “Acid 25”, the “fraction fluorescent probe displaced, Screen” value was -0.00813 and the “fraction fluorescent probe displaced, Replicate” value came out at 0.07.
For the compound `O=C1CCSSCCNC(=O)c2cccc(c2)CNC(=O)C2(CCN(C(=O)c3ccc(Cl)s3)CC2)NC(=O)[C@H](Cc2ccccc2)N1` [X F D6 B5 Acid 14], where the note is “Acid 14”, the “fraction fluorescent probe displaced, Screen” value turned out to be 0.053 and the “fraction fluorescent probe displaced, Replicate” value was 0.0211.
Take `O=C1CCSSCCNC(=O)c2cccc(c2)CNC(=O)C2(CCN(C(=O)c3ccc(Cl)cc3)CC2)NC(=O)C(Cc2ccccc2)N1` (stereo not drawn) [X F D6 B5 Acid 25]: for the setting “Acid 25”, the “fraction fluorescent probe displaced, Screen” value is given as -0.00813 and the “fraction fluorescent probe displaced, Replicate” value stood at 0.12.
For `O=C1CCSSCCNC(=O)c2cccc(c2)CNC(=O)C2(CCN(C(=O)/C=C/c3ccccc3)CC2)NC(=O)[C@H](Cc2ccccc2)N1` [X F D6 B5 Acid 91], for the setting “Acid 91”, the “fraction fluorescent probe displaced, Screen” value was -0.0241 and the “fraction fluorescent probe displaced, Replicate” value was -0.0333.
Turning to `O=C1CCNC(=O)C2CN(C(=O)c3ccc(Cl)cc3)CCN2C(=O)C(Cc2ccccc2)NC(=O)CCSSCCN1` (stereo not drawn) [X F D7 B2 Acid 25], where the note is “Acid 25”, the “fraction fluorescent probe displaced, Screen” value is recorded as -0.07 and the “fraction fluorescent probe displaced, Replicate” value is 0.10.
Regarding `O=C1CCSSCCNC(=O)C2CCCN(C2)C(=O)C2CN(C(=O)c3ccc(Cl)s3)CCN2C(=O)C(Cc2ccccc2)N1` (stereo not drawn) [X F D7 B4 Acid 14], where the note is “Acid 14”, the “fraction fluorescent probe displaced, Screen” value is -0.00483 and the “fraction fluorescent probe displaced, Replicate” value was determined as 0.12.
As to `O=C1CCSSCCNC(=O)[C@H](CNC(=O)c2ccc(Cl)s2)NC(=O)[C@@H]2CCCN2C(=O)[C@H](Cc2c[nH]c3ccccc23)N1` [X W B1 D3 Acid 14] ([Mpa]WP[Dap](2Thenoyl(5-Cl))-Cysteamide; disulfide 1-C), where the note is “Acid 14”, the “fraction fluorescent probe displaced, Screen” value turned out to be 0.14 and the “fraction fluorescent probe displaced, Replicate” value stood at 0.22.
As to `O=C1CCSSCCNC(=O)[C@H](CNC(=O)c2ccc(Cl)cc2)NC(=O)[C@@H]2CCCN2C(=O)[C@H](Cc2c[nH]c3ccccc23)N1` [X W B1 D3 Acid 25] ([Mpa]WP[Dap](Benzoyl(4-Cl))-Cysteamide; disulfide 1-C), for the setting “Acid 25”, the “fraction fluorescent probe displaced, Screen” value stood at 0.28 and the “fraction fluorescent probe displaced, Replicate” value worked out at 0.17.
Turning to `O=C(/C=C/c1ccccc1)NC[C@@H]1NC(=O)[C@@H]2CCCN2C(=O)[C@H](Cc2c[nH]c3ccccc23)NC(=O)CCSSCCNC1=O` [X W B1 D3 Acid 91] ([Mpa]WP[Dap](X1)-Cysteamide; disulfide 1-C), where the note is “Acid 91”, the “fraction fluorescent probe displaced, Screen” value is recorded as 0.19 and the “fraction fluorescent probe displaced, Replicate” value is 0.12.
In the case of `O=C1CCSSCCNC(=O)C2CC(NC(=O)c3ccc(Cl)s3)CN2C(=O)C2CCCN2C(=O)C(Cc2c[nH]c3ccccc23)N1` (stereo not drawn) [X W B1 D5 Acid 14] ([Mpa]WP[ξPro(4-NHCO(5-Cl-2-thienyl))]-Cysteamide; disulfide 1-C; configuration not given here), for the setting “Acid 14”, the “fraction fluorescent probe displaced, Screen” value was 0.0241 and the “fraction fluorescent probe displaced, Replicate” value is given as 0.17.
As for `O=C1CCSSCCNC(=O)C2CC(NC(=O)c3ccc(Cl)cc3)CN2C(=O)C2CCCN2C(=O)C(Cc2c[nH]c3ccccc23)N1` (stereo not drawn) [X W B1 D5 Acid 25] ([Mpa]WP[ξPro(4ξ-NHCOC6H4-4-Cl)]-Cysteamide; disulfide 1-C; configuration not given here), where the note is “Acid 25”, the “fraction fluorescent probe displaced, Screen” value came to 0.15 and the “fraction fluorescent probe displaced, Replicate” value is recorded as 0.17.
As for `O=C1CCSSCCNC(=O)C2(CCN(C(=O)c3ccc(Cl)s3)CC2)NC(=O)[C@@H]2CCCN2C(=O)[C@H](Cc2c[nH]c3ccccc23)N1` [X W B1 D6 Acid 14] ([Mpa]WP[Api](2Thenoyl(5-Cl))-Cysteamide; disulfide 1-C), for the setting “Acid 14”, the “fraction fluorescent probe displaced, Screen” value turned out to be 0.08 and the “fraction fluorescent probe displaced, Replicate” value is -0.00432.
For the compound `O=C1CCSSCCNC(=O)C2(CCN(C(=O)c3ccc(Cl)cc3)CC2)NC(=O)C2CCCN2C(=O)C(Cc2c[nH]c3ccccc23)N1` (stereo not drawn) [X W B1 D6 Acid 25] ([Mpa]WP[Api](Benzoyl(4-Cl))-Cysteamide; disulfide 1-C; configuration not given here), where the note is “Acid 25”, the “fraction fluorescent probe displaced, Screen” value was 0.19 and the “fraction fluorescent probe displaced, Replicate” value came to 0.07.
The corresponding values for `O=C1CCSSCCNC(=O)C2CN(C(=O)c3ccc(Cl)cc3)CCN2C(=O)C2CCCN2C(=O)C(Cc2c[nH]c3ccccc23)N1` (stereo not drawn) [X W B1 D7 Acid 25] are 0.19 and 0.17.
Take `O=C1CCNC(=O)[C@H](Cc2c[nH]c3ccccc23)NC(=O)CCSSCCNC(=O)[C@H](CNC(=O)c2ccc(Cl)s2)N1` [X W B2 D3 Acid 14]: for the setting “Acid 14”, the “fraction fluorescent probe displaced, Screen” value turned out to be 0.23 and the “fraction fluorescent probe displaced, Replicate” value was determined as 0.35.
Take `O=C1CCNC(=O)[C@H](Cc2c[nH]c3ccccc23)NC(=O)CCSSCCNC(=O)[C@H](CNC(=O)c2ccc(Cl)cc2)N1` [X W B2 D3 Acid 25]: where the note is “Acid 25”, the “fraction fluorescent probe displaced, Screen” value was determined as 0.28 and the “fraction fluorescent probe displaced, Replicate” value worked out at 0.22.
Take `O=C(/C=C/c1ccccc1)NC[C@@H]1NC(=O)CCNC(=O)[C@H](Cc2c[nH]c3ccccc23)NC(=O)CCSSCCNC1=O` [X W B2 D3 Acid 91]: under “Acid 91”, the “fraction fluorescent probe displaced, Screen” value is recorded as 0.08 and the “fraction fluorescent probe displaced, Replicate” value turned out to be 0.09.
For `O=C1CCSSCCNC(=O)C2(CCN(C(=O)c3ccc(Cl)s3)CC2)NC(=O)CCNC(=O)[C@H](Cc2c[nH]c3ccccc23)N1` [X W B2 D6 Acid 14], for the setting “Acid 14”, the “fraction fluorescent probe displaced, Screen” value was found to be 0.20 and the “fraction fluorescent probe displaced, Replicate” value is given as -0.00432.
As for `O=C1CCSSCCNC(=O)C2(CCN(C(=O)c3ccc(Cl)cc3)CC2)NC(=O)CCNC(=O)[C@H](Cc2c[nH]c3ccccc23)N1` [X W B2 D6 Acid 25], where the note is “Acid 25”, the “fraction fluorescent probe displaced, Screen” value is given as 0.09 and the “fraction fluorescent probe displaced, Replicate” value is reported as 0.0465.
As to `O=C1CCSSCCNC(=O)C2(CCN(C(=O)/C=C/c3ccccc3)CC2)NC(=O)CCNC(=O)[C@H](Cc2c[nH]c3ccccc23)N1` [X W B2 D6 Acid 91], for the setting “Acid 91”, the “fraction fluorescent probe displaced, Screen” value was found to be 0.22 and the “fraction fluorescent probe displaced, Replicate” value was found to be 0.09.
As for `O=C1CCSSCCNC(=O)[C@H](CNC(=O)c2ccc(Cl)cc2)NC(=O)[C@H]2CCCN(C2)C(=O)[C@H](Cc2c[nH]c3ccccc23)N1` [X W B4 D3 Acid 25], under “Acid 25”, the “fraction fluorescent probe displaced, Screen” value is 0.25 and the “fraction fluorescent probe displaced, Replicate” value is 0.30.
For the compound `O=C1CCSSCCNC(=O)C2CC(NC(=O)c3ccc(Cl)s3)CN2C(=O)C2CCCN(C2)C(=O)C(Cc2c[nH]c3ccccc23)N1` (stereo not drawn) [X W B4 D5 Acid 14], for the setting “Acid 14”, the “fraction fluorescent probe displaced, Screen” value turned out to be 0.23 and the “fraction fluorescent probe displaced, Replicate” value was determined as 0.35.
For `O=C(C=Cc1ccccc1)NC1CC2C(=O)NCCSSCCC(=O)NC(Cc3c[nH]c4ccccc34)C(=O)N3CCCC(C3)C(=O)N2C1` (stereo not drawn) [X W B4 D5 Acid 91], where the note is “Acid 91”, the “fraction fluorescent probe displaced, Screen” value is listed as 0.30 and the “fraction fluorescent probe displaced, Replicate” value is 0.22.
In the case of `O=C1CCSSCCNC(=O)C2(CCN(C(=O)c3ccc(Cl)s3)CC2)NC(=O)[C@H]2CCCN(C2)C(=O)[C@H](Cc2c[nH]c3ccccc23)N1` [X W B4 D6 Acid 14], for the setting “Acid 14”, the “fraction fluorescent probe displaced, Screen” value is reported as 0.17 and the “fraction fluorescent probe displaced, Replicate” value stood at 0.33.
For `O=C1CCSSCCNC(=O)C2(CCN(C(=O)c3ccc(Cl)cc3)CC2)NC(=O)[C@H]2CCCN(C2)C(=O)[C@H](Cc2c[nH]c3ccccc23)N1` [X W B4 D6 Acid 25], for the setting “Acid 25”, the “fraction fluorescent probe displaced, Screen” value is 0.25 and the “fraction fluorescent probe displaced, Replicate” value was determined as 0.12.
Consider `O=C1CCSSCCNC(=O)C2CN(C(=O)c3ccc(Cl)s3)CCN2C(=O)C2CCCN(C2)C(=O)C(Cc2c[nH]c3ccccc23)N1` (stereo not drawn) [X W B4 D7 Acid 14], for which, under “Acid 14”, the “fraction fluorescent probe displaced, Screen” value was determined as 0.34 and the “fraction fluorescent probe displaced, Replicate” value came out at 0.33.
With `O=C1CCSSCCNC(=O)[C@H](CNC(=O)c2ccc(Cl)s2)NC(=O)c2cccc(c2)CNC(=O)[C@H](Cc2c[nH]c3ccccc23)N1` [X W B5 D3 Acid 14], under “Acid 14”, the “fraction fluorescent probe displaced, Screen” value worked out at 0.20 and the “fraction fluorescent probe displaced, Replicate” value came out at 0.30.
Take `O=C1CCSSCCNC(=O)[C@H](CNC(=O)c2ccc(Cl)cc2)NC(=O)c2cccc(c2)CNC(=O)[C@H](Cc2c[nH]c3ccccc23)N1` [X W B5 D3 Acid 25]: where the note is “Acid 25”, the “fraction fluorescent probe displaced, Screen” value worked out at 0.41 and the “fraction fluorescent probe displaced, Replicate” value is reported as 0.22.
Regarding `O=C(/C=C/c1ccccc1)NC[C@@H]1NC(=O)c2cccc(c2)CNC(=O)[C@H](Cc2c[nH]c3ccccc23)NC(=O)CCSSCCNC1=O` [X W B5 D3 Acid 91], where the note is “Acid 91”, the “fraction fluorescent probe displaced, Screen” value turned out to be 0.03 and the “fraction fluorescent probe displaced, Replicate” value is 0.07.
Take `O=C1CCSSCCNC(=O)C2CC(NC(=O)c3ccc(Cl)s3)CN2C(=O)c2cccc(c2)CNC(=O)C(Cc2c[nH]c3ccccc23)N1` (stereo not drawn) [X W B5 D5 Acid 14]: for the setting “Acid 14”, the “fraction fluorescent probe displaced, Screen” value worked out at 0.14 and the “fraction fluorescent probe displaced, Replicate” value stood at 0.10.
`O=C(C=Cc1ccccc1)NC1CC2C(=O)NCCSSCCC(=O)NC(Cc3c[nH]c4ccccc34)C(=O)NCc3cccc(c3)C(=O)N2C1` (stereo not drawn) [X W B5 D5 Acid 91]: under “Acid 91”, the “fraction fluorescent probe displaced, Screen” value is reported as 0.08 and the “fraction fluorescent probe displaced, Replicate” value turned out to be 0.17.
As for `O=C1CCSSCCNC(=O)C2(CCN(C(=O)c3ccc(Cl)s3)CC2)NC(=O)c2cccc(c2)CNC(=O)[C@H](Cc2c[nH]c3ccccc23)N1` [X W B5 D6 Acid 14], under “Acid 14”, the “fraction fluorescent probe displaced, Screen” value was 0.14 and the “fraction fluorescent probe displaced, Replicate” value is given as 0.17.
In the case of `O=C1CCSSCCNC(=O)C2CN(C(=O)c3ccc(Cl)cc3)CCN2C(=O)c2cccc(c2)CNC(=O)C(Cc2c[nH]c3ccccc23)N1` (stereo not drawn) [X W B5 D7 Acid 25], under “Acid 25”, the “fraction fluorescent probe displaced, Screen” value was found to be 0.0244 and the “fraction fluorescent probe displaced, Replicate” value was found to be 0.12.
